US12168653B2, “Sulfonamide derivates as NLRP3 inhibitors” (Inflazome Limited, priority 2018, dated 2024)
Counter-ions that a name gives are not always drawn. Like-named read-outs stand apart in the source and are kept apart here.

System: NLRP3
Experiment: THP-1 cells pyroptosis assay (LPS/nigericin, resazurin read-out)
Format: cell-based
Details: Homo sapiens
Description: THP-1 cells (ATCC #TIB-202) were grown in RPMI containing L-glutamine (Gibco #11835) supplemented with 1 mM sodium pyruvate (Sigma #S8636) and penicillin (100 units/ml)/streptomycin (0.1 mg/ml) (Sigma #P4333) in 10% Fetal Bovine Serum (FBS) (Sigma #F0804). The cells were routinely passaged and grown to confluency (˜10^6 cells/ml). On the day of the experiment, THP-1 cells were harvested and resuspended into RPMI medium (without FBS). The cells were then counted and viability (>90%) checked by Trypan blue (Sigma #T8154). Appropriate dilutions were made to give a concentration of 625,000 cells/ml. To this diluted cell solution was added LPS (Sigma #L4524) to give a 1 μg/ml Final Assay Concentration (FAC). 40 μl of the final preparation was aliquoted into each well of a 96-well plate. The plate thus prepared was used for compound screening.
The following method step-by-step assay was followed for compound screening. • 1. Seed THP-1 cells (25,000 cells/well) containing 1.0 μg/ml LPS in 40 μl of RPMI medium (without FBS) in 96-well, black walled, clear bottom cell culture plates coated with poly-D-lysine (VWR #734-0317) • 2. Add 5 μl compound (8 points half-log dilution, with 10 μM top dose) or vehicle (DMSO 0.1% FAC) to the appropriate wells • 3. Incubate for 3 hrs at 37° C., 5% CO2 • 4. Add 5 μl nigericin (Sigma #N7143) (FAC 5 μM) to all wells • 5. Incubate for 1 hr at 37° C., 5% CO2 • 6. At the end of the incubation period, spin plates at 300×g for 3 mins and remove supernatant • 7. Then add 50 μl of resazurin (Sigma #R7017) (FAC 100 μM resazurin in RPMI medium without FBS) and incubate plates for a further 1-2 hrs at 37° C. and 5% CO2 • 8. Plates were read in an Envision reader at Ex 560 nm and Em 590 nm • 9. IC50 data is fitted to a non-linear regression equation (log inhibitor vs response-variable slope 4-parameters) 96-Well Plate Map

[1] = THP-1 cells, 1 μg/ml LPS, 3 hrs compound, 5 μM nigericin 1 hr, NLRP3 inhibitory activity, read-out: THP IC50

IC50 [1] [µM]	Structure (SMILES)	IC50 (THP-1, read-out: THP IC50) [µM]
–	COc1cc(-c2ccc3c(c2CC(=O)NS(=O)(=O)N(C)C2CCN(C)C2)CCC3)ccn1 (centres unmarked) [Example 1, 2-(5-(2-Methoxypyridin-4-yl)-2,3-dihydro-1H-inden-4-yl)-N—(N-methyl-N-(1-methylpyrrolidin-3-yl)sulfamoyl)acetamide, Potassium Salt]	< 5
< 10	CCN(CC)CCCS(=O)(=O)NC(=O)Cc1c(-c2ccnc(OC)c2)ccc2c1CCC2 [Example 2, N-((3-(Diethylamino)propyl)sulfonyl)-2-(5-(2-methoxypyridin-4-yl)-2,3-dihydro-1H-inden-4-yl)acetamide]	–
–	CCN(CC)CCCS(=O)(=O)NC(=O)Cc1c(-c2ccnc(OC)c2)cc(F)cc1C(C)C [Example 3, N-((3-(Diethylamino)propyl)sulfonyl)-2-(4-fluoro-2-isopropyl-6-(2-methoxypyridin-4-yl)phenyl)acetamide, Potassium Salt]	< 5
< 10	CCN(CC)CCCS(=O)(=O)NC(=O)Cc1c2c(cc3c1CCC3)CCC2 [Example 4, N-((3-(Diethylamino)propyl)sulfonyl)-2-(1,2,3,5,6,7-hexahydro-s-indacen-4-yl)acetamide]	–
< 5	CC(C)c1cc(F)cc(C(C)C)c1CC(=O)NS(=O)(=O)N(C)C1CCN(C)C1 (centres unmarked) [Example 5, 2-(4-Fluoro-2,6-diisopropylphenyl)-N—(N-methyl-N-(1-methylpyrrolidin-3-yl)sulfamoyl)acetamide]	–
< 10	CCN(CC)CCCS(=O)(=O)NC(=O)Cc1c(C(C)C)cc(F)cc1C(C)C [Example 6, N-((3-(Diethylamino)propyl)sulfonyl)-2-(4-fluoro-2,6-diisopropylphenyl)acetamide]	–
–	COc1cc(-c2cc(F)cc(C(C)C)c2CC(=O)NS(=O)(=O)C[C@]23CCC(CC2=O)C3(C)C)ccn1 [Example 7, N-((((1S)-7,7-Dimethyl-2-oxobicyclo[2.2.1]heptan-1-yl)methyl)sulfonyl)-2-(4-fluoro-2-isopropyl-6-(2-methoxypyridin-4-yl)phenyl)acetamide, Potassium Salt]	< 10
–	COc1cc(-c2cc(F)cc(C(C)C)c2CC(=O)NS(=O)(=O)N(C)C2CCN(C)C2)ccn1 (centres unmarked) [Example 8, 2-(4-Fluoro-2-isopropyl-6-(2-methoxypyridin-4-yl)phenyl)-N—(N-methyl-N-(1-methylpyrrolidin-3-yl)sulfamoyl)acetamide, Potassium Salt]	< 5
–	COc1cc(-c2cc(F)cc(C(C)C)c2CC(=O)NS(=O)(=O)C[C@@]23CC[C@@H](C[C@H]2O)C3(C)C)ccn1 [Example 9, 2-(4-Fluoro-2-isopropyl-6-(2-methoxypyridin-4-yl)phenyl)-N-((((1R,2R,4S)-2-hydroxy-7,7-dimethylbicyclo[2.2.1]heptan-1-yl)methyl)sulfonyl)acetamide, Potassium Salt]	< 5
–	COc1cc(-c2cc(F)cc(C(C)C)c2CC(=O)NS(=O)(=O)CCCC(C)(C)O)ccn1 [Example 10, 2-(4-Fluoro-2-isopropyl-6-(2-methoxypyridin-4-yl)phenyl)-N-((4-hydroxy-4-methylpentyl)sulfonyl)acetamide, Potassium Salt]	< 10
< 1	COc1cc(-c2cc(F)cc(C(C)C)c2CC(=O)NS(=O)(=O)CC2(C#N)CCCCC2)ccn1 [Example 11]	–
